Key:
[1] = system: Human immunodeficiency virus 1; assay: Antiviral activity against HIV1; assay type: functional, organism-based
MT4 [2] = assay: Cytotoxicity against MT4 cell line by MTT assay; assay type: functional; settings: Homo sapiens, read-out: TC50 (the source's name)
[3] = system: Human immunodeficiency virus 1; assay: Antiviral activity against HIV1 in C8166 cell line; assay type: functional, organism-based; settings: Human immunodeficiency virus 1, C8166
C8166 [4] = assay: Selectivity index, TC50 for C8166 cell line/EC50 for HIV1; assay type: functional
[5] = system: Human immunodeficiency virus 1; assay: Antiviral activity against HIV1 K103N-Y181C mutant in MT4 cell line; assay type: functional, organism-based; settings: Human immunodeficiency virus 1, MT4
MT4 [6] = assay: Selectivity index, TC50 for MT4 cell line/EC50 for HIV1; assay type: functional
[7] = system: Human immunodeficiency virus 1; assay: Antiviral activity against HIV1 Y181C mutant in MT4 cell line; assay type: functional, organism-based; settings: Human immunodeficiency virus 1, MT4
[8] = system: Human immunodeficiency virus 1; assay: Antiviral activity against HIV1 3B in MT4 cell line; assay type: functional, organism-based; settings: Human immunodeficiency virus 1, 3B
[9] = system: Human immunodeficiency virus 1; assay: Antiviral activity against HIV1 in MT4 cell line; assay type: functional, organism-based; settings: Human immunodeficiency virus 1, MT4
C8166 [10] = assay: Antiproliferative activity against C8166 cell line by MTT assay; assay type: functional; settings: Homo sapiens, read-out: TC50 (the source's name)
[11] = system: Human immunodeficiency virus 1; assay: Activity against HIV1 3B assessed by inhibition of p24 production in human lymphocytes; assay type: functional, organism-based; settings: Human immunodeficiency virus 1, 3B
Lymphocyte [12] = assay: Selectivity index, TC50 for human lymphocytes/EC50 for HIV-112; assay type: functional
Macrophage [13] = assay: Cytotoxicity against human macrophages; assay type: functional; settings: read-out: TC50 (the source's name)
Lymphocyte [14] = assay: Selectivity index, TC50 for human lymphocytes/EC50 for HIV1 3B; assay type: functional
Lymphocyte [15] = assay: Selectivity index, TC50 for human lymphocytes/EC50 for HIV-AB1; assay type: functional
Lymphocyte [16] = assay: Cytotoxicity against human lymphocytes; assay type: functional; settings: read-out: TC50 (the source's name)
Macrophage [17] = assay: Selectivity index, TC50 for human macrophages/EC50 for HIV1 […]; assay type: functional
[18] = system: Human immunodeficiency virus; assay: Activity against HIV-AB1 assessed by inhibition of p24 production in human lymphocytes; assay type: functional, organism-based; settings: Human immunodeficiency virus 1
[19] = system: Human immunodeficiency virus; assay: Activity against HIV-112 assessed by inhibition of p24 production in human lymphocytes; assay type: functional, organism-based; settings: Human immunodeficiency virus 1

EC50 [1] | SMILES | also measured
0.8 nM | Cc1cc(C)cc(S(=O)(=O)c2c(C(=O)NCCO)[nH]c3ccc(Cl)cc23)c1 | 
> 200000 nM | CC(C)OC(=O)c1cn(S(=O)(=O)c2ccccc2)c2ccc(Cl)cc12 | 
100 nM | Cc1ccccc1Sc1c(C(=O)NNCCO)[nH]c2ccc(Cl)cc12 | 
200 nM | O=C(NNCCO)c1[nH]c2ccc(Cl)cc2c1Sc1ccccc1 | 
> 200000 nM | CCOC(=O)c1cc2cc(Cl)ccc2n1S(=O)(=O)c1ccc(Cl)cc1 | 
1 nM | Cc1cccc(S(=O)(=O)c2c(C(N)=O)[nH]c3ccc(Cl)cc23)c1 | 
8300 nM | CCOC(=O)c1cc2cc(Cl)ccc2n1S(=O)(=O)c1cc(Cl)ccc1N | 
300 nM | NC(=O)c1[nH]c2ccccc2c1S(=O)(=O)c1cc(Cl)ccc1N | 
 | Cc1cc(C)cc(S(=O)(=O)c2c(C(=O)NCC(=O)NN)[nH]c3ccc(Cl)cc23)c1 | CC50 (MT4 [2]): > 100 µM; EC50 [3]: 20 nM; Selectivity index (C8166 [4]): >5000; EC50 [5]: 2600 nM; Selectivity index (MT4 [6]): >5000; EC50 [7]: 60 nM; EC50 [8]: 20 nM; EC50 ([9]; read-out: EC50): 20 nM; CC50 (C8166 [10]): > 100 µM
> 100000 nM | CCOC(=O)c1cc2ccccc2n1S(=O)(=O)c1ccc(Cl)cc1 | 
> 32000 nM | NC(=O)c1cn(S(=O)(=O)c2ccccc2)c2ccccc12 | 
1 nM | Cc1cc(C)cc(S(=O)(=O)c2c(C(=O)NNCCO)[nH]c3ccc(Cl)cc23)c1 | 
550 nM | NNC(=O)c1[nH]c2ccc(Cl)cc2c1Sc1ccccc1 | 
7 nM | Cc1cccc(S(=O)(=O)c2c(C(=O)NNCCO)[nH]c3ccc(Cl)cc23)c1 | 
5000 nM | NNC(=O)c1[nH]c2ccc(Cl)cc2c1Sc1ccc(F)cc1 | 
 | Cc1cc(C)cc(S(=O)(=O)c2c(C(=O)NN3CCOC3=O)[nH]c3ccc(Cl)cc23)c1 | EC50 [11]: 10 nM; Selectivity index (Lymphocyte [12]): >3333; CC50 (MT4 [2]): 100 µM; CC50 (Macrophage [13]): > 100 µM; EC50 [3]: 3 nM; Selectivity index (Lymphocyte [14]): >10000; Selectivity index (C8166 [4]): >33333; EC50 [5]: 900 nM; Selectivity index (Lymphocyte [15]): >5000; CC50 (Lymphocyte [16]): > 100 µM; Selectivity index (Macrophage [17]): >50000; Selectivity index (MT4 [6]): 111111; EC50 [18]: 0.02 µM; EC50 [19]: 0.03 µM; EC50 [7]: 10 nM; EC50 [8]: 1 nM; EC50 ([9]; read-out: EC50): 0.9 nM; EC50 ([9]; read-out: Log EC50 (converted)): 0.899 nM; CC50 (C8166 [10]): > 100 µM
> 150000 nM | O=S(=O)(c1ccccc1)n1ccc2ccccc21 | 
50 nM | Cc1ccccc1Sc1c(C(=O)NCCO)[nH]c2ccc(Cl)cc12 | 
3 nM | Cc1cccc(S(=O)(=O)c2c(C(=O)NCCO)[nH]c3ccc(Cl)cc23)c1 | 
> 13000 nM | NNC(=O)c1[nH]c2ccc(Cl)cc2c1Sc1cc(Cl)ccc1N | 
> 54000 nM | CC(C)OC(=O)c1cn(S(=O)(=O)c2ccccc2)c2ccccc12 | 

EC50 [1] | SMILES | also measured
8 nM | Cc1ccc(S(=O)(=O)c2c(C(=O)NCCO)[nH]c3ccc(Cl)cc23)c(C)c1 | 
10 nM | O=C(NNCCO)c1[nH]c2ccc(Cl)cc2c1S(=O)(=O)c1ccccc1 | 
 | O=C1Nc2ccc(Cl)cc2[C@@](C#CC2CC2)(C(F)(F)F)O1 [EFAVIRENZ] | EC50 [11]: 7 nM; CC50 (Lymphocyte [16]): > 100 µM; EC50 [18]: > 20 µM; EC50 [19]: > 20 µM
> 200000 nM | CCOC(=O)c1cc2cc(Cl)ccc2n1S(=O)(=O)c1ccccc1 | 
80 nM | Cc1ccc(S(=O)(=O)c2c(C(=O)NNCCO)[nH]c3ccc(Cl)cc23)c(C)c1 | 
> 200000 nM | CCOC(=O)c1cc2cc(Cl)ccc2n1S(=O)(=O)c1ccc(C)cc1 | 
50 nM | Cc1ccccc1S(=O)(=O)c1c(C(=O)NNCCO)[nH]c2ccc(Cl)cc12 | 
80 nM | Cc1cccc(Sc2c(C(=O)NCCO)[nH]c3ccc(Cl)cc23)c1 | 
1 nM | Cc1ccccc1S(=O)(=O)c1c(C(N)=O)[nH]c2ccc(Cl)cc12 | 
1200 nM | Cc1ccc(Sc2c(C(=O)NNCCO)[nH]c3ccc(Cl)cc23)c(C)c1 | 
12 nM | Cc1cc(C)cc(Sc2c(C(=O)NCCO)[nH]c3ccc(Cl)cc23)c1 | 
180 nM | NC(=O)c1[nH]c2ccccc2c1S(=O)(=O)c1ccccc1 | 
8000 nM | CC(C)(C)c1ccc(Sc2c(C(N)=O)[nH]c3ccc(Cl)cc23)cc1 | 
530 nM | NNC(=O)c1[nH]c2ccccc2c1S(=O)(=O)c1ccccc1 | 
2 nM | Cc1cc(C)cc(S(=O)(=O)c2c(C(N)=O)[nH]c3ccc(Br)cc23)c1 | 
9000 nM | NC(=O)c1[nH]c2ccccc2c1Sc1cc(Cl)ccc1N | 
> 200000 nM | NNC(=O)c1cc2ccccc2n1S(=O)(=O)c1ccccc1 | 
31 nM | Cc1ccccc1S(=O)(=O)c1c(C(=O)NCCO)[nH]c2ccc(Cl)cc12 | 
> 75000 nM | O=S(=O)(c1ccccc1)n1ccc2cc(Cl)ccc21 | 
66600 nM | NC(=O)c1cc2cc(Cl)ccc2n1S(=O)(=O)c1ccccc1 | 
4 nM | Cc1ccc(S(=O)(=O)c2c(C(N)=O)[nH]c3ccc(Cl)cc23)c(C)c1 | 

EC50 [1] | SMILES | also measured
100 nM | Cc1cccc(Sc2c(C(=O)NCCO)[nH]c3ccc(Cl)cc23)c1C | 
1400 nM | CCOC(=O)c1[nH]c2ccccc2c1Sc1ccccc1 | 
4960 nM | Nc1ccccc1-n1ccc2ccccc21 | 
> 200000 nM | CCOC(=O)c1[nH]c2ccc(Cl)cc2c1S(=O)(=O)c1ccccc1N | 
> 100000 nM | CCOC(=O)c1cc2ccccc2n1S(=O)(=O)c1cc(Cl)ccc1[N+](=O)[O-] | 
120 nM | Cc1ccc(Sc2c(C(=O)NCCO)[nH]c3ccc(Cl)cc23)cc1 | 
1800 nM | CCOC(=O)c1cc2ccccc2n1S(=O)(=O)c1ccccc1[N+](=O)[O-] | 
6 nM | Cc1cc(C)cc(Sc2c(C(N)=O)[nH]c3ccc(Cl)cc23)c1 | 
40 nM | Cc1ccc(S(=O)(=O)c2c(C(=O)NNCCO)[nH]c3ccc(Cl)cc23)cc1 | 
> 31000 nM | CCOC(=O)c1cc2cc(Cl)ccc2n1S(=O)(=O)c1cc(Cl)ccc1[N+](=O)[O-] | 
> 200000 nM | CCOC(=O)c1[nH]c2ccccc2c1Sc1ccccc1N | 
100 nM | NC(=O)c1[nH]c2ccc(Cl)cc2c1S(=O)(=O)c1c(Cl)cccc1Cl | 
1 nM | O=C(NCCO)c1[nH]c2ccc(Cl)cc2c1S(=O)(=O)c1ccccc1 | 
30 nM | Cc1cc(C)cc(Sc2c(C(=O)NNCCO)[nH]c3ccc(Cl)cc23)c1 | 
43 nM | Cc1ccc(S(=O)(=O)c2c(C(=O)NCCO)[nH]c3ccc(Cl)cc23)cc1 | 
5400 nM | O=[N+]([O-])c1ccc(Cl)cc1-n1ccc2ccccc21 | 
20 nM | NC(=O)c1[nH]c2ccc(Cl)cc2c1Sc1ccccc1 | 
 | Cc1ccnc2c1NC(=O)c1cccnc1N2C1CC1 [NEVIRAPINE] | EC50 [11]: 90 nM; Selectivity index (Lymphocyte [14]): >1111; CC50 (Lymphocyte [16]): > 100 µM; EC50 [18]: > 20 µM; EC50 [19]: > 20 µM; EC50 [8]: 370 nM
300 nM | NNC(=O)c1[nH]c2ccc(Cl)cc2c1S(=O)(=O)c1cc(Cl)ccc1N | 
320 nM | NNC(=O)c1[nH]c2ccc(Cl)cc2c1S(=O)(=O)c1ccc(F)cc1 | 
> 32000 nM | CCOC(=O)c1cn(S(=O)(=O)c2ccccc2)c2ccccc12 | 

EC50 [1] | SMILES | also measured
10000 nM | NNC(=O)c1[nH]c2ccc(Cl)cc2c1Sc1ccc(Cl)cc1 | 
3 nM | Cc1ccc(S(=O)(=O)c2c(C(N)=O)[nH]c3ccc(Cl)cc23)cc1 | 
4800 nM | O=[N+]([O-])c1cc(Cl)ccc1-n1ccc2ccccc21 | 
50 nM | Cc1ccc(S(=O)(=O)c2c(C(=O)NN)[nH]c3ccc(Cl)cc23)cc1 | 
130 nM | Cc1cc(C)cc(S(=O)(=O)c2c(C(=O)NN)[nH]c3ccc(Cl)cc23)c1 | 
40 nM | O=C(NCCO)c1[nH]c2ccc(Cl)cc2c1Sc1ccccc1 | 
≥ 200000 nM | CCOC(=O)c1[nH]c2ccccc2c1Sc1cc(Cl)ccc1N | 
5300 nM | O=[N+]([O-])c1ccccc1-n1ccc2ccccc21 | 
> 450 nM | Cc1ccc(Sc2c(C(N)=O)[nH]c3ccc(Cl)cc23)cc1 | 
> 42000 nM | CCOC(=O)c1cn(S(=O)(=O)c2ccccc2)c2ccc(Cl)cc12 | 
190 nM | NNC(=O)c1[nH]c2ccc(Cl)cc2c1S(=O)(=O)c1ccc(Cl)cc1 | 
6000 nM | Nc1ccc(Cl)cc1-n1ccc2ccccc21 | 
4130 nM | Nc1cc(Cl)ccc1-n1ccc2ccccc21 | 
300 nM | Cc1ccccc1Sc1c(C(N)=O)[nH]c2ccc(Cl)cc12 | 
5220 nM | O=[N+]([O-])c1ccc(Cl)c(-n2ccc3ccccc32)c1 | 
40 nM | NC(=O)c1[nH]c2ccc(Cl)cc2c1S(=O)(=O)c1cc(Cl)ccc1N | 
3820 nM | Nc1ccc(Cl)c(-n2ccc3ccccc32)c1 | 
600 nM | Cc1ccc(Sc2c(C(=O)NNCCO)[nH]c3ccc(Cl)cc23)cc1 | 
80 nM | CC(C)c1ccc(S(=O)(=O)c2c(C(N)=O)[nH]c3ccc(Cl)cc23)cc1 | 
 | Cc1cc(C)cc(S(=O)(=O)c2c(C(=O)NCC(N)=O)[nH]c3ccc(Cl)cc23)c1 | CC50 (MT4 [2]): 45 µM; EC50 [3]: 20 nM; Selectivity index (C8166 [4]): >5000; EC50 [5]: 1200 nM; Selectivity index (MT4 [6]): 4500; EC50 [7]: 50 nM; EC50 [8]: 10 nM; EC50 ([9]; read-out: EC50): 10 nM; CC50 (C8166 [10]): > 100 µM

SMILES | EC50 [1] | also measured
NC(=O)c1[nH]c2ccc(Cl)cc2c1S(=O)(=O)c1ccccc1 [L-737126] | 1 nM | 
NNC(=O)c1[nH]c2ccc(Cl)cc2c1S(=O)(=O)c1ccccc1 | 10 nM | 
Cc1cc(C)cc(S(=O)(=O)c2c(C(N)=O)[nH]c3ccc(Cl)cc23)c1 | 4 nM | 

Source: ChEMBL document CHEMBL1147813, “Design, molecular modeling, synthesis, and anti-HIV-1 activity of new indolyl aryl sulfones. Novel derivatives of the indole-2-carboxamide” (J Med Chem, 2006)
